PubChem BioAssay AID1963975 (Molecular Pharmacology Branch, DTP, NCI, 2024)
pIC50: −log10 of the molar value.

System: 624824-186-R-J2-PDC multicell spheroids, viability
Test: Anticancer human tumor 624824-186-R-J2-PDC patient-derived colon adenocarcinoma cell line growth inhibition [PI3K]
Conditions: for pIC50: curve of first compound; for viability, T/C: stronger effect = lower value
In short: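 Targeted small molecules plus PI3K inhibitors, half-log dose series from Cmax (default top 10 microM), were applied to heterotypic spheroids of cancer cells with HUVEC and MSCs. Viability indicated growth inhibition.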

[1] = second compound 0.0316 µM, first compound 0.0316 µM
[2] = second compound 0.0316 µM, first compound 0.1 µM
[3] = second compound 0.0316 µM, first compound 0.316 µM
[4] = second compound 0.0316 µM, first compound 1 µM
[5] = second compound 0.1 µM, first compound 0.0316 µM
[6] = second compound 0.1 µM, first compound 0.1 µM
[7] = second compound 0.1 µM, first compound 0.316 µM
[8] = second compound 0.1 µM, first compound 1 µM
[9] = second compound 0.316 µM, first compound 0.0316 µM
[10] = second compound 0.316 µM, first compound 0.1 µM
[11] = second compound 0.316 µM, first compound 0.316 µM
[12] = second compound 0.316 µM, first compound 1 µM
[13] = second compound 1 µM, first compound 0.0316 µM
[14] = second compound 1 µM, first compound 0.1 µM
[15] = second compound 1 µM, first compound 0.316 µM
[16] = second compound 1 µM, first compound 1 µM
[17] = second compound 3.16 µM, first compound 0.0316 µM
[18] = second compound 3.16 µM, first compound 0.1 µM
[19] = second compound 3.16 µM, first compound 0.316 µM
[20] = second compound 3.16 µM, first compound 1 µM
[21] = second compound 10 µM, first compound 0.0316 µM
[22] = second compound 10 µM, first compound 0.1 µM
[23] = second compound 10 µM, first compound 0.316 µM
[24] = second compound 10 µM, first compound 1 µM
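Note: spheroids exposed to agents for 7 days before viability read.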
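Throughout, for viability, T/C: 100% = DMSO vehicle treated spheroids.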

With `CC(C)NCC(C(=O)N1CCN(c2ncnc3c2C(C)CC3O)CC1)c1ccc(Cl)cc1` (centres undefined) + CC(Nc1ncnc2nc[nH]c12)c1cc2cccc(Cl)c2c(=O)n1-c1ccccc1 as the compound, how does the pIC50 (second compound 0.0316 µM) read?
The pIC50 was less than 5.00.

What about the pIC50 (second compound 0.1 µM) of the same compound?
The pIC50 was less than 5.00.

What about the pIC50 (second compound 0.316 µM) of the same compound?
Its pIC50 is less than 5.00.

And the pIC50 (second compound 1 µM)?
The pIC50 was less than 5.00.

And the pIC50 (second compound 3.16 µM)?
The pIC50 was less than 5.00.

And the pIC50 (second compound 10 µM)?
The pIC50 was less than 5.00.

And the viability, T/C [1]?
Its viability, T/C is 86.1%.

What about the viability, T/C [2] of the same compound?
The viability, T/C was 87.8%.

What about the viability, T/C [3] of the same compound?
The viability, T/C was 75.5%.

And the viability, T/C [4]?
The viability, T/C was 89.6%.

What about the viability, T/C (second compound 0.0316 µM, first compound 3.16 µM) of the same compound?
Its viability, T/C is 88.4%.

And the viability, T/C (second compound 0.0316 µM, first compound 10 µM)?
Its viability, T/C is 89.4%.

What about the viability, T/C [5] of the same compound?
Its viability, T/C is 111%.

And the viability, T/C [6]?
The viability, T/C was 84.9%.

What about the viability, T/C [7] of the same compound?
Its viability, T/C is 88.4%.

And the viability, T/C [8]?
Its viability, T/C is 82.2%.

And the viability, T/C (second compound 0.1 µM, first compound 3.16 µM)?
Its viability, T/C is 85%.

And the viability, T/C (second compound 0.1 µM, first compound 10 µM)?
Its viability, T/C is 86.6%.

What about the viability, T/C [9] of the same compound?
Its viability, T/C is 112%.

What about the viability, T/C [10] of the same compound?
Its viability, T/C is 113%.

And the viability, T/C [11]?
The viability, T/C was 71.3%.

And the viability, T/C [12]?
The viability, T/C was 95.6%.

What about the viability, T/C (second compound 0.316 µM, first compound 3.16 µM) of the same compound?
The viability, T/C was 81%.

And the viability, T/C (second compound 0.316 µM, first compound 10 µM)?
Its viability, T/C is 74.7%.

What about the viability, T/C [13] of the same compound?
The viability, T/C was 106%.

What about the viability, T/C [14] of the same compound?
The viability, T/C was 96.2%.

What about the viability, T/C [15] of the same compound?
Its viability, T/C is 99.4%.

And the viability, T/C [16]?
The viability, T/C was 85%.

And the viability, T/C (second compound 1 µM, first compound 3.16 µM)?
The viability, T/C was 90.8%.

And the viability, T/C (second compound 1 µM, first compound 10 µM)?
Its viability, T/C is 89.3%.

What about the viability, T/C [17] of the same compound?
The viability, T/C was 85.6%.

What about the viability, T/C [18] of the same compound?
The viability, T/C was 104%.

And the viability, T/C [19]?
The viability, T/C was 100%.

And the viability, T/C [20]?
The viability, T/C was 82.1%.

What about the viability, T/C (second compound 3.16 µM, first compound 3.16 µM) of the same compound?
Its viability, T/C is 88.1%.

What about the viability, T/C (second compound 3.16 µM, first compound 10 µM) of the same compound?
The viability, T/C was 87.2%.

And the viability, T/C [21]?
The viability, T/C was 98.7%.

What about the viability, T/C [22] of the same compound?
The viability, T/C was 108%.

And the viability, T/C [23]?
The viability, T/C was 103%.

And the viability, T/C [24]?
Its viability, T/C is 88.1%.

And the viability, T/C (second compound 10 µM, first compound 3.16 µM)?
The viability, T/C was 75.5%.

What about the viability, T/C (second compound 10 µM, first compound 10 µM) of the same compound?
Its viability, T/C is 71.4%.

Which results are given for `CCN1CCN(Cc2ccc(Nc3ncc(F)c(-c4cc(F)c5nc(C)n(C(C)C)c5c4)n3)nc2)CC1` + CC(Nc1ncnc2nc[nH]c12)c1cc2cccc(Cl)c2c(=O)n1-c1ccccc1?
pIC50 (second compound 0.0316 µM): < 6.00; pIC50 (second compound 0.1 µM): < 6.00; pIC50 (second compound 0.316 µM): < 6.00; pIC50 (second compound 1 µM): < 6.00; pIC50 (second compound 3.16 µM): < 6.00; pIC50 (second compound 10 µM): < 6.00; viability, T/C (second compound 0.0316 µM, first compound 0.00316 µM): 91.4%; viability, T/C (second compound 0.0316 µM, first compound 0.01 µM): 125%; viability, T/C [1]: 77.5%; viability, T/C [2]: 83.9%; viability, T/C [3]: 85.3%; viability, T/C [4]: 101%; viability, T/C (second compound 0.1 µM, first compound 0.00316 µM): 121%; viability, T/C (second compound 0.1 µM, first compound 0.01 µM): 100%; viability, T/C [5]: 100%; viability, T/C [6]: 102%; viability, T/C [7]: 88.1%; viability, T/C [8]: 115%; viability, T/C (second compound 0.316 µM, first compound 0.00316 µM): 99.8%; viability, T/C (second compound 0.316 µM, first compound 0.01 µM): 96.2%; viability, T/C [9]: 95.5%; viability, T/C [10]: 66.9%; viability, T/C [11]: 92%; viability, T/C [12]: 112%; viability, T/C (second compound 1 µM, first compound 0.00316 µM): 104%; viability, T/C (second compound 1 µM, first compound 0.01 µM): 72.2%; viability, T/C [13]: 85.8%; viability, T/C [14]: 81.4%; viability, T/C [15]: 93.7%; viability, T/C [16]: 102%; viability, T/C (second compound 3.16 µM, first compound 0.00316 µM): 91%; viability, T/C (second compound 3.16 µM, first compound 0.01 µM): 86.5%; viability, T/C [17]: 77.3%; viability, T/C [18]: 95.8%; viability, T/C [19]: 111%; viability, T/C [20]: 112%; viability, T/C (second compound 10 µM, first compound 0.00316 µM): 120%; viability, T/C (second compound 10 µM, first compound 0.01 µM): 100%; viability, T/C [21]: 114%; viability, T/C [22]: 91.6%; viability, T/C [23]: 91.2%; viability, T/C [24]: 101%
